This note sets out measurements from ChEMBL document CHEMBL5584309, “Discovery of Novel Mcl-1 Inhibitors with a 3-Substituted-1H-indole-1-yl Moiety Binding to the P1-P3 Pockets to Induce Apoptosis in Acute Myeloid Leukemia Cells” (J Med Chem, 2024).

Assay [1] deals with T1, Bcl-2-related protein A1 (Homo sapiens, UniProt Q16548).
T1 sequence (Q16548 whole entry): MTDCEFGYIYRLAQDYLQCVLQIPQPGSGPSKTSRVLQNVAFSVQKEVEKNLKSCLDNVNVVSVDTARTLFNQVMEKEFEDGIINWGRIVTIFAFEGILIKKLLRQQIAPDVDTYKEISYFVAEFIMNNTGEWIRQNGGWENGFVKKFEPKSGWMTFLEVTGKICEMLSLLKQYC
Briefly: Binding affinity to Bfl-1 (unknown origin) pre-incubated for 30 mins followed by addition FAM-peptide further incubated for 20 mins by fluorescence polarization-based binding assay.

Assay [2] addresses Bcl-2-like protein 1 (Homo sapiens, UniProt Q07817). Description: Binding affinity to Bcl-xL (unknown origin) pre-incubated for 30 mins followed by addition FAM-peptide further incubated for 20 mins by fluorescence polarization-based binding assay.
In assay [3] the target is Apoptosis regulator Bcl-2 (Homo sapiens, UniProt P10415). Description: Binding affinity to Bcl-2 (unknown origin) pre-incubated for 30 mins followed by addition FAM-peptide further incubated for 20 mins by fluorescence polarization-based binding assay.
In assay [4] the test system is HL-60. Briefly: Antiproliferative activity against human HL-60 cells assessed as growth inhibition measured after 72 hrs by CCK-8 assay. It counts as functional, cell-based. To be noted: HL-60, 72 h.
In assay [5] the target is Induced myeloid leukemia cell differentiation protein Mcl-1 (Homo sapiens, UniProt Q07820). Briefly: Binding affinity to Mcl-1 (unknown origin) pre-incubated for 30 mins followed by addition FAM-peptide further incubated for 20 mins by fluorescence polarization-based binding assay.
Chain of Induced myeloid leukemia cell differentiation protein Mcl-1 (Q07820 whole entry): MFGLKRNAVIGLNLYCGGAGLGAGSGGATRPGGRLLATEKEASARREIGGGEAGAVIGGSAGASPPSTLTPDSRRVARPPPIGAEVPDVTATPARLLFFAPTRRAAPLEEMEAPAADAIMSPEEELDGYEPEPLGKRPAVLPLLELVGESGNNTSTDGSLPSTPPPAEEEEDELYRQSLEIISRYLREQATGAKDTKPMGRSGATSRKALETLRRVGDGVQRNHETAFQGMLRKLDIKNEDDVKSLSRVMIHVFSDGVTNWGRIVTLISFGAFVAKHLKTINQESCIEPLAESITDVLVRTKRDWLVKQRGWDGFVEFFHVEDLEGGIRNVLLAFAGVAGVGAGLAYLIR

Chain of Bcl-2-like protein 1 (Q07817 whole entry): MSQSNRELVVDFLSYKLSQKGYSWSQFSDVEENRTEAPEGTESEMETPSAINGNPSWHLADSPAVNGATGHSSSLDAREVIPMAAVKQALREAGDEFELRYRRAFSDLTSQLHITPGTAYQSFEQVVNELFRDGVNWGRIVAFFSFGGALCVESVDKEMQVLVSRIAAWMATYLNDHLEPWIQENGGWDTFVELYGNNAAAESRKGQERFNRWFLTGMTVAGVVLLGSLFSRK
Chain of Apoptosis regulator Bcl-2 (P10415 whole entry): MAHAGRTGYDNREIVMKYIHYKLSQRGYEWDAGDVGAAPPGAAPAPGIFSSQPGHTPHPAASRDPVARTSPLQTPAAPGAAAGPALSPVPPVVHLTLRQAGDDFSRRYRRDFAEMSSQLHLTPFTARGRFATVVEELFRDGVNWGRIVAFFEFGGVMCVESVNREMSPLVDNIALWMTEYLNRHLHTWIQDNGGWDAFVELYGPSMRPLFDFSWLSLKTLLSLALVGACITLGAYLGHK

Regarding `CC(C)=CCC[C@]1(C)C=Cc2c(O)c3c(c(CC=C(C)C)c2O1)O[C@]12C(=C[C@@H]4C[C@H]1C(C)(C)O[C@@]2(C/C=C(/C)C(=O)O)C4=O)C3=O` [GAMBOGIC ACID], the IC50 in assay [1] was 500 nM; in assay [2] it was 500 nM; in assay [3] it was 160 nM.
As for `Cc1cc(OCCCc2c(C(=O)O)n(CCN3CCOCC3)c3c(-c4ccccc4Cn4cc(CCNC(=O)c5ccc(Cl)cc5)c5ccccc54)cccc23)cc(C)c1Cl`, the IC50 is 7580 nM in assay [4], greater than 10000 nM in assay [1], greater than 100000 nM in assay [2] and greater than 100000 nM in assay [3]. The Ki in assay [5] (read-out: Ki) amounted to 45 nM.
Regarding `Cc1cc(OCCCc2c(C(=O)O)[nH]c3ccccc23)cc(C)c1Cl`, in assay [4], the IC50 was greater than 50000 nM.
Regarding `COc1ccc(OCc2c(-c3cccc4c(CCCOc5cc(C)c(Cl)c(C)c5)c(C(=O)O)[nH]c34)c(C(=O)N(C)CCNC(=O)OC(C)(C)C)nn2C)cc1`, in assay [4], the IC50 is greater than 50000 nM. For the same molecule, the Ki in assay [5] (read-out: Ki) stood at 260 nM.
On the same counts, the results for `COc1ccc2c(ccn2Cc2ccccc2-c2cccc3c(CCCOc4cc(C)c(Cl)c(C)c4)c(C(=O)O)n(CCN4CCOCC4)c23)c1` are 16100 nM and 150 nM.
For `Cc1cc(OCCCc2c(C(=O)O)n(CCN3CCOCC3)c3c(-c4ccccc4Cn4ccc5c(C)cccc54)cccc23)cc(C)c1Cl`, the IC50 in assay [4] was found to be 15100 nM. The Ki in assay [5] (read-out: Ki) amounted to 120 nM.
The like results for `Cc1cc(OCCCc2c(C(=O)O)n(CCN3CCOCC3)c3c(-c4ccccc4Cn4cc(CCNC(=O)c5ccc(Br)cc5)c5ccccc54)cccc23)cc(C)c1Cl` were, in that order, 30700 nM and 51 nM.
The like results for `Cc1cc(OCCCc2c(C(=O)O)n(CCN3CCOCC3)c3c(-c4ccccc4Cn4cc(CCNC(=O)c5ccncc5F)c5ccccc54)cccc23)cc(C)c1Cl` were, in that order, 12600 nM and 55 nM.
As to `C=CC(=O)NCCc1cn(Cc2ccccc2-c2cccc3c(CCCOc4cc(C)c(Cl)c(C)c4)c(C(=O)O)n(CCN4CCOCC4)c23)c2ccccc12`, the IC50 in assay [4] was found to be 31600 nM. In assay [5] (read-out: Ki), the Ki came out at 190 nM.
The like results for `Cc1cc(OCCCc2c(C(=O)O)n(CCN3CCOCC3)c3c(-c4ccccc4Cn4cc(CCNC(=O)c5ccc(C=O)cc5)c5ccccc54)cccc23)cc(C)c1Cl` were, in that order, 35100 nM and 27 nM.
With `Cc1cc(OCCCc2c(C(=O)O)n(CCN3CCOCC3)c3c(-c4ccccc4Cn4cc(CCNC(=O)c5ccoc5)c5ccccc54)cccc23)cc(C)c1Cl`, the IC50 in assay [4] was determined as 29900 nM. For the same molecule, the Ki in assay [5] (read-out: Ki) amounted to 58 nM.
The like results for `Cc1cc(OCCCc2c(C(=O)O)[nH]c3c(-c4ccccc4Cn4ccc5ccccc54)cccc23)cc(C)c1Cl` were, in that order, 44100 nM and 240 nM.
On the same counts, the results for `Cc1cc(OCCCc2c(C(=O)O)[nH]c3c(-c4ccccc4CN(C)c4ccccc4)cccc23)cc(C)c1Cl` are 31900 nM and 650 nM.
`Cc1cc(OCCCc2c(C(=O)O)n(CCN3CCOCC3)c3c(-c4ccccc4Cn4cc(CCNC(=O)/C=C/c5ccc(Cl)c(Cl)c5)c5ccccc54)cccc23)cc(C)c1Cl`: in assay [4], the IC50 is greater than 50000 nM. Also, the inhibition constant (Ki) entry in assay [5] is on record as “Not Active”.
With `COc1ccc(OCc2c(-c3cccc4c(CCCOc5cc(C)c(Cl)c(C)c5)c(C(=O)O)[nH]c34)c(C(=O)NC3CCOCC3)nn2C)cc1`, the half-maximal inhibitory concentration (IC50) in assay [4] is 21100 nM. The inhibition constant Ki in assay [5] (read-out: Ki) amounted to 840 nM.
As for `Cc1cc(OCCCc2c(C(=O)O)n(CCN3CCOCC3)c3c(-c4ccccc4Cn4cc(CCNC(=O)c5ccc(OC(F)(F)F)cc5)c5ccccc54)cccc23)cc(C)c1Cl`, the IC50 in assay [4] was 7920 nM; in assay [1] it was greater than 10000 nM; in assay [2] it was greater than 100000 nM; in assay [3] it was greater than 100000 nM. Moreover, the Ki in assay [5] (read-out: Ki) came to 29 nM.
As for `COc1ccccc1OCc1c(-c2cccc3c(CCCOc4cc(C)c(Cl)c(C)c4)c(C(=O)O)[nH]c23)c(C(=O)NCC2CC2)nn1C`, in assay [4], the IC50 turned out to be 28800 nM. For the same molecule, in assay [5] (read-out: Ki), the Ki turned out to be 240 nM.
The like results for `COc1cccc(OCc2c(-c3cccc4c(CCCOc5cc(C)c(Cl)c(C)c5)c(C(=O)O)[nH]c34)c(C(=O)NCC3CC3)nn2C)c1` were, in that order, greater than 50000 nM and 370 nM.
The like results for `Cc1cc(OCCCc2c(C(=O)O)[nH]c3c(-c4c(C(=O)NCC5CC5)nn(C)c4COc4ccc(C=O)cc4)cccc23)cc(C)c1Cl` were, in that order, 34900 nM and 180 nM.
On the same counts, the results for `COc1ccc(OCc2c(-c3cccc4c(CCCOc5cc(C)c(Cl)c(C)c5)c(C(=O)O)[nH]c34)c(C(=O)NCC3CC3)nn2C)cc1` are 30500 nM and 220 nM.
As to `Cc1cc(OCCCc2c(C(=O)O)[nH]c3c(-c4c(C(=O)NCC5CC5)nn(C)c4Cn4cc(C)c5ccccc54)cccc23)cc(C)c1Cl`, in assay [4], the IC50 is 10500 nM. Further, the Ki in assay [5] (read-out: Ki) was 100 nM.
With `Cc1cc(OCCCc2c(C(=O)O)[nH]c3c(-c4c(C(=O)NCC5CC5)nn(C)c4Cn4cc(CCNC(=O)OC(C)(C)C)c5ccccc54)cccc23)cc(C)c1Cl`, in assay [4], the IC50 was 19300 nM. Besides, in assay [5] (read-out: Ki), the Ki was 150 nM.
The like results for `Cc1cc(OCCCc2c(C(=O)O)n(CCN3CCOCC3)c3c(-c4ccccc4Cn4cc(CCNC(=O)c5ccccc5C(F)(F)F)c5ccccc54)cccc23)cc(C)c1Cl` were, in that order, 14300 nM and 56 nM.
For `Cc1cc(OCCCc2c(C(=O)O)n(CCN3CCOCC3)c3c(-c4ccccc4Cn4cc(CCNC(=O)CCC(F)(F)F)c5ccccc54)cccc23)cc(C)c1Cl`, the IC50 in assay [4] stood at 12800 nM. Further, the Ki in assay [5] (read-out: Ki) is 98 nM.
The like results for `Cc1ccc2c(ccn2Cc2c(-c3cccc4c(CCCOc5cc(C)c(Cl)c(C)c5)c(C(=O)O)[nH]c34)c(C(=O)NCC3CC3)nn2C)c1` were, in that order, 8820 nM and 150 nM.
On the same counts, the results for `Cc1ccc2c(ccn2Cc2ccccc2-c2cccc3c(CCCOc4cc(C)c(Cl)c(C)c4)c(C(=O)O)n(CCN4CCOCC4)c23)c1` are 39100 nM and 160 nM.
The like results for `Cc1cc(OCCCc2c(C(=O)O)n(CCN3CCOCC3)c3c(-c4ccccc4Cn4cc(CCNCC(N)=O)c5ccccc54)cccc23)cc(C)c1Cl` were, in that order, greater than 50000 nM and 1200 nM.
As for `Cc1cc(OCCCc2c(C(=O)O)n(CCN3CCOCC3)c3c(-c4ccccc4Cn4cc(CCNC(=O)c5cccc(Br)c5)c5ccccc54)cccc23)cc(C)c1Cl`, in assay [4], the IC50 was found to be 12300 nM. Further, the Ki in assay [5] (read-out: Ki) stood at 87 nM.
The like results for `COc1ccc(OCc2c(-c3cccc4c(CCCOc5cc(C)c(Cl)c(C)c5)c(C(=O)O)[nH]c34)c(C(=O)Nc3ccccc3F)nn2C)cc1` were, in that order, 28300 nM and 390 nM.
On the same counts, the results for `Cc1cc(OCCCc2c(C(=O)O)n(CCN3CCOCC3)c3c(-c4ccccc4Cn4ccc5ccccc54)cccc23)cc(C)c1Cl` are 21200 nM and 150 nM.
On the same counts, the results for `COc1cccc2c1ccn2Cc1ccccc1-c1cccc2c(CCCOc3cc(C)c(Cl)c(C)c3)c(C(=O)O)n(CCN3CCOCC3)c12` are 14100 nM and 95 nM.
In the case of `Cc1cc(OCCCc2c(C(=O)O)n(CCN3CCOCC3)c3c(-c4ccccc4Cn4cc(C)c5ccccc54)cccc23)cc(C)c1Cl`, the IC50 in assay [4] came out at 15600 nM. The Ki in assay [5] (read-out: Ki) was 89 nM.
In the case of `Cc1cc(OCCCc2c(C(=O)O)[nH]c3c(-c4c(C(=O)NCC5CC5)nn(C)c4COc4ccc(OC(F)(F)F)cc4)cccc23)cc(C)c1Cl`, the half-maximal inhibitory concentration (IC50) in assay [4] turned out to be 32200 nM. Moreover, the Ki in assay [5] (read-out: Ki) was determined as 260 nM.
On the same counts, the results for `Cc1ccccc1C(=O)NCCc1cn(Cc2ccccc2-c2cccc3c(CCCOc4cc(C)c(Cl)c(C)c4)c(C(=O)O)n(CCN4CCOCC4)c23)c2ccccc12` are 10100 nM and 59 nM.
Take `Cc1cc(OCCCc2c(C(=O)O)n(CCN3CCOCC3)c3c(-c4ccccc4Cn4cc(CCNC(=O)c5ccncn5)c5ccccc54)cccc23)cc(C)c1Cl`: the IC50 in assay [4] came to 28400 nM. Further, the Ki in assay [5] (read-out: Ki) worked out at 120 nM.
On the same counts, the results for `COc1ccc(OCc2c(-c3cccc4c(CCCOc5cc(C)c(Cl)c(C)c5)c(C(=O)O)[nH]c34)c(C(=O)NCC3CCOCC3)nn2C)cc1` are 35000 nM and 490 nM.
The like results for `Cc1cc(OCCCc2c(C(=O)O)n(CCN3CCOCC3)c3c(-c4ccccc4Cn4cc(CCNC(=O)c5c(C)cccc5F)c5ccccc54)cccc23)cc(C)c1Cl` were, in that order, 14200 nM and 43 nM.
The like results for `Cc1cc(OCCCc2c(C(=O)O)n(CCN3CCOCC3)c3c(-c4ccccc4Cn4cc(CCNC(=O)c5ccccc5Br)c5ccccc54)cccc23)cc(C)c1Cl` were, in that order, 16800 nM and 68 nM.
In the case of `Cc1cc(OCCCc2c(C(=O)O)[nH]c3c(-c4c(C(=O)NCC5CC5)nn(C)c4COc4ccccc4)cccc23)cc(C)c1Cl`, in assay [4], the IC50 came out at 47800 nM. The Ki in assay [5] (read-out: Ki) turned out to be 340 nM.
`Cc1cc(OCCCc2c(C(=O)O)n(CCN3CCOCC3)c3c(-c4ccccc4Cn4cc(CCNS(=O)(=O)c5ccc(F)cc5)c5ccccc54)cccc23)cc(C)c1Cl`: the IC50 in assay [4] was found to be 8910 nM. Moreover, the Ki in assay [5] (read-out: Ki) is 48 nM.
Consider `COc1ccc(CN(C)C(=O)c2nn(C)c(COc3ccc(OC)cc3)c2-c2cccc3c(CCCOc4cc(C)c(Cl)c(C)c4)c(C(=O)O)[nH]c23)cc1`, for which the IC50 in assay [4] worked out at 28000 nM. For the same molecule, in assay [5] (read-out: Ki), the Ki stood at 530 nM.
The like results for `Cc1cc(OCCCc2c(C(=O)O)n(CCN3CCOCC3)c3c(-c4ccccc4Cn4cc(CCNC(=O)CC(F)(F)F)c5ccccc54)cccc23)cc(C)c1Cl` were, in that order, 18300 nM and 60 nM.
